Measurements from patent US20210069199A1, “METHODS OF TREATING TRANSPLANT REJECTION” (priority 2015, published 2021).

Columns and labels:
[1] = test system: GVHD in recipient mice; test: murine model of MHC-disparate allogeneic hematopoietic cell transplantation (GVHD); assay type: in vivo; conditions: 100 mg/kg twice a day by oral gavage for 4 weeks beginning on the day of MHC-disparate allo-HCT
[2] = test system: human skin graft rejection by allogeneic human PBMC; test: human skin/NSG mouse xenograft model of solid organ graft rejection; assay type: in vivo
Description: The inventors then evaluated whether JAK2 inhibition could prevent solid organ graft rejection, using a human skin/NSG mouse xenograft model. A 1×1 cm split-thickness human skin graft was transplanted onto the animal dorsally, followed by intraperitoneal injection of 5×10^6 allogeneic peripheral blood mononuclear cells (PBMC) 30 days after surgery.

[3] = test system: human T-cells; test: allogeneic mixed leukocyte reaction, T-cell proliferation; assay type: cell-based; conditions: 2.5 μM, after 5 days of culture, DC:T-cell ratio 1:30; control 100%; P<0.0001
Description: (§1) This offers a platform to reduce Th17 development, while promoting Treg populations.

[4] = test system: STAT3 activity by IL-6; test: STAT3 activity by IL-6 in human CD4+ T-cells; assay type: cell-based; conditions: 2.5 μM
Description: as §1

[5] = test system: IL-2 induced STATS phosphorylation; test: IL-2 induced STAT5 phosphorylation in human CD4+ T-cells; assay type: cell-based; conditions: 2.5 μM
Description: as §1

[6] = test system: iTregs; test: suppressive potency of iTregs generated with allogeneic DCs in the presence of drug; assay type: cell-based, human; conditions: iTregs generated with allogeneic DCs for 5 days with drug, then cultured with self T-cell responders and fresh DCs without drug
Description: as §1

[7] = target: T1, JAK3 (Homo sapiens, UniProt P52333); conditions: cited from earlier work
T1 sequence (P52333 1-1124): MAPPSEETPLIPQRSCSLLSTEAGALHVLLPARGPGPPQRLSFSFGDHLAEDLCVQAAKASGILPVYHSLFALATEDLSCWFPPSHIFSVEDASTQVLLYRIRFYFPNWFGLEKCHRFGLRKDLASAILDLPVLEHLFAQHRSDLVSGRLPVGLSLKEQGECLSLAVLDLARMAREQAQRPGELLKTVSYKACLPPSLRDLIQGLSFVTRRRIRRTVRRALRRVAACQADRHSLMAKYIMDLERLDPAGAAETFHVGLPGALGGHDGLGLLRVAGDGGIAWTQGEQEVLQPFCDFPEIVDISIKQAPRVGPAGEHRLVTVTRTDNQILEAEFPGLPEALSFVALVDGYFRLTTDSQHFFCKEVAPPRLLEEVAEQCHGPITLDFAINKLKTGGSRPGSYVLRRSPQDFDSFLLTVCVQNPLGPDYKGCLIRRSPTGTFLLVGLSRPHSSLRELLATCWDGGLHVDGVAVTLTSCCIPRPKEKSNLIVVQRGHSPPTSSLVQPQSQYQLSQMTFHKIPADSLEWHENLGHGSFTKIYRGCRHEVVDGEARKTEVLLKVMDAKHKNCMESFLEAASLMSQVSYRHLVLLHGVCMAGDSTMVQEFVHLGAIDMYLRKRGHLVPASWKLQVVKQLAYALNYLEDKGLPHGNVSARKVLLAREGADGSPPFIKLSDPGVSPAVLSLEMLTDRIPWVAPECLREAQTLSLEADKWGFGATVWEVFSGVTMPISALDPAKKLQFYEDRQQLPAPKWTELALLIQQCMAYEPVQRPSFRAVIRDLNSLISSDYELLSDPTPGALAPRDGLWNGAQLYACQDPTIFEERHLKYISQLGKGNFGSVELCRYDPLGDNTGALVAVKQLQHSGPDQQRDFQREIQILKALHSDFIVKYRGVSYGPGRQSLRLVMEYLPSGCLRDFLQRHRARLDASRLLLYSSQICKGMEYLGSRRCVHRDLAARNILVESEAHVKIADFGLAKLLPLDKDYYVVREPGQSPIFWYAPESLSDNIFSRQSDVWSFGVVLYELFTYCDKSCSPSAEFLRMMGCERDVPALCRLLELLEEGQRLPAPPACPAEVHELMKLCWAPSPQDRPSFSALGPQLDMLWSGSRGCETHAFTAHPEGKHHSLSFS

[8] = target: CSF1R (Homo sapiens, UniProt P07333); conditions: cited from earlier work
[9] = target: IRAK1 (Homo sapiens, UniProt P51617); conditions: cited from earlier work
[10] = test system: myelofibrosis patients; conditions: unlike JAK1/JAK2 inhibitors; cited from earlier work

CSF1R, sequence (P07333 20-972, species assumed): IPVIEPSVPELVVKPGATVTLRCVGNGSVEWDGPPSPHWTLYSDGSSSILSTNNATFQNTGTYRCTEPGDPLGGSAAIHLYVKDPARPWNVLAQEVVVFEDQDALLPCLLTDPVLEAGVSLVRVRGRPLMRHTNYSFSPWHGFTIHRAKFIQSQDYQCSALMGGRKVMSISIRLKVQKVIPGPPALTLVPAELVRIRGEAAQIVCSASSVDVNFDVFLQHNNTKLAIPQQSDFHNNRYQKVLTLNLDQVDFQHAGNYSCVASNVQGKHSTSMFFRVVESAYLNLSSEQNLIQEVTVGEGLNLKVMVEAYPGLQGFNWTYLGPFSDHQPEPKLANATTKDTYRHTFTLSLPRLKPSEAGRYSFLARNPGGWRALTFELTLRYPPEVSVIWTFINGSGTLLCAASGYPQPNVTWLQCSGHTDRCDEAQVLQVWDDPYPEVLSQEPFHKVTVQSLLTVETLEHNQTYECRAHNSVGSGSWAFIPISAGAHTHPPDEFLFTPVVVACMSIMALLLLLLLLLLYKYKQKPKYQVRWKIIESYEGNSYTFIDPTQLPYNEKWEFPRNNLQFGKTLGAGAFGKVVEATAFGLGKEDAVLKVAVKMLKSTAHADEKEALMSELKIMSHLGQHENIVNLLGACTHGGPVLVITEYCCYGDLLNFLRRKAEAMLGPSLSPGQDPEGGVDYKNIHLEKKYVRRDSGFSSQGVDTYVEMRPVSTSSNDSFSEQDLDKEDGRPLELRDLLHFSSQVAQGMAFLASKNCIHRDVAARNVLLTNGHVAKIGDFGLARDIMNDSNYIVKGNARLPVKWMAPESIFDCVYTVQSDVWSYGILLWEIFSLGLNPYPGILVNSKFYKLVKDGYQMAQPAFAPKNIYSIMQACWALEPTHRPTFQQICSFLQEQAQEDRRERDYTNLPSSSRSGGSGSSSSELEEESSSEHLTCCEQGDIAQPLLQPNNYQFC
IRAK1, sequence (P51617 whole entry, species assumed): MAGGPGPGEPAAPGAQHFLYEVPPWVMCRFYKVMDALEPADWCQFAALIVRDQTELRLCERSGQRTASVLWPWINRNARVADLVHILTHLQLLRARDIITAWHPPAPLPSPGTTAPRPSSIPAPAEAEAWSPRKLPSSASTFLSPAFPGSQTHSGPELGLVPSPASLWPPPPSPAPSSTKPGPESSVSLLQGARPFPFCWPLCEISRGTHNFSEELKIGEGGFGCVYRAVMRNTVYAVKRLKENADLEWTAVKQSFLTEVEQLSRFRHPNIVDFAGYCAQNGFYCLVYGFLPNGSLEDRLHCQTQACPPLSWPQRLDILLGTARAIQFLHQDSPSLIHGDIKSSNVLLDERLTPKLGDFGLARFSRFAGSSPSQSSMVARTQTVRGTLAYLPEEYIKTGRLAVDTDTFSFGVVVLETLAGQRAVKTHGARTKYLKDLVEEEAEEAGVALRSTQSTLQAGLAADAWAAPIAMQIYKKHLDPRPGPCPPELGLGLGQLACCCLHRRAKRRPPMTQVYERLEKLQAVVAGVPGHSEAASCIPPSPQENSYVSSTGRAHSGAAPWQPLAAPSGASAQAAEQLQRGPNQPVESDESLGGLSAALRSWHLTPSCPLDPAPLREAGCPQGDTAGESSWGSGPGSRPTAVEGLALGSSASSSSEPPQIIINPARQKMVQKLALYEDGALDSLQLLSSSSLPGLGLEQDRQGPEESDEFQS

Q: What does the source list for `C1=C/COCc2cc(ccc2OCCN2CCCC2)Nc2nccc(n2)-c2cccc(c2)COC/1` [pacritinib, 11-(2-Pyrrolidinl-yl-ethoxy)-14,19-dioxa-5,7,26-triazatetracyclo[19.3.1.1^2,6.1^8,12] heptacosa-1(25),2(26),3,5,8,10,12(27),16,21,23-decaene]?
A: GVHD in recipient mice [1]: significantly reducing GVHD; Day 60 survival (graft) ([2]; 100 mg/kg twice a day oral gavage for 15 days from PBMC injection, vehicle 0%): 33.3%; Median graft survival ([2]; 100 mg/kg twice a day oral gavage for 15 days from PBMC injection, vehicle 32.5 days, P=0.0011): 51 days; lymphocytic infiltration of skin graft (H&E, CD3 IHC) ([2]; skin grafts at day +21, before onset of graft rejection): reduces lymphocytic infiltration of the tissue; Mean proliferation (T-cell) [3]: 23.7%; STAT3 activity by IL-6 [4]: eliminated STAT3 activity by IL-6; IL-2 induced STATS phosphorylation [5]: permitting IL-2 induced STATS phosphorylation; suppressive potency of treated iTregs versus DMSO-treated iTregs [6]: similar; suppressive activity toward JAK3 [7]: has suppressive activity toward JAK3; suppressive activity toward CSF1R [8]: has suppressive activity toward JAK3, CSF1R; suppressive activity toward IRAK1 [9]: has suppressive activity toward JAK3, CSF1R, and IRAK1; myelosuppression [10]: does not induce myelosuppression; risk for opportunistic infections [10]: does not induce myelosuppression or increase risk for opportunistic infections
